Values after ≈ are worked out from the molar mass of the structure shown. Where two headings read alike, the source gives them in different places.
What was measured:
NRP Mtb H37Rv cells = experiment: Low-oxygen recovery assay (LORA) MIC; format: cell-based, Mycobacterium tuberculosis; details: for MIC: Mycobacterium tuberculosis, H37RV, read-out: LORA MIC - ITR
Mtb H37Rv [1] = experiment: TB MIC - SRI, resazurin-based microplate assay; format: cell-based, Mycobacterium tuberculosis; details: for MIC: Mycobacterium tuberculosis, H37RV
Mtb H37Rv [2] = experiment: TB MIC - ITR (UIC), Institute for Tuberculosis Research; format: cell-based, Mycobacterium tuberculosis; details: Tables 1-4; for MIC: Mycobacterium tuberculosis, H37RV, read-out: TB MIC - ITR
[3] = Tables 1-4 and text, read-out: TB MIC - SRI

Row | Structure (SMILES) | LORA MIC - ITR (NRP Mtb H37Rv cells; NRP Mtb, Tables 1-4 and text) | MIC, H37Rv (Mtb H37Rv [1]; Table 5) | TB MIC - SRI (Mtb H37Rv [1]; Tables 1-4 and text) | TB MIC - ITR (Mtb H37Rv [2]) | Vero Tox CC50 (Vero cells) | MIC (NRP Mtb H37Rv cells; NRP Mtb, Tables 1-4 and text) | MIC (Mtb H37Rv [1]; [3]) | MIC (Mtb H37Rv [2]) | Vero Tox CC50 (Vero cells; African green monkey, 72 h) | MIC (NRP Mtb H37Rv cells) | MIC (Mtb H37Rv [1]; Table 5, read-out: MIC, H37Rv)
1 | CCNc1n[n+]([O-])c2cccc(C)c2[n+]1[O-] [Compound 15ea, Ethyl-(5-methyl-1,4-dioxy-benzo[1,2,4]triazin-3-yl)-amine] | 0.48 µg/mL | 0.62 µg/mL (≈ 2.82 µM) | 0.62 µg/mL | 0.51 µg/mL | 22 µg/mL |  |  |  |  |  | 
2 | Cc1cccc2c1[n+]([O-])c(NC1CCC1)n[n+]2[O-] [Compound 15ed, 3-(cyclobutylamino)-5-methylbenzo[e][1,2,4]triazine 1,4-dioxide] |  |  |  |  |  | 0.43 µg/mL (≈ 1.75 µM) | 0.31 µg/mL (≈ 1.26 µM) | 0.47 µg/mL (≈ 1.91 µM) | 22 µg/mL |  | 
3 | [O-][n+]1nc(NC2CCC2)[n+]([O-])c2cc3c(cc21)CCC3 [Compound 15fd, Cyclobutyl-(5,8-dioxy-2,3-dihydro-1H-5,6,8-triaza-cyclopenta[b]naphthalen-7-yl)-amine] | 0.44 µg/mL | 0.62 µg/mL (≈ 2.28 µM) | 0.62 µg/mL | 0.96 µg/mL | 34 µg/mL |  |  |  |  |  | 
4 | [O-][n+]1nc(N[C@@H]2C[C@H]3CC[C@@H]2C3)[n+]([O-])c2cc3c(cc21)CCC3 [Compound 15fm, 3-((1R,2R,4S)-bicyclo[2.2.1]heptan-2-ylamino)-7,8-dihydro-6H-indeno[5,6-e][1,2,4]triazine 1,4-dioxide] |  |  |  |  |  | 0.36 µg/mL (≈ 1.15 µM) | 1.2 µg/mL (≈ 3.84 µM) | 0.93 µg/mL (≈ 2.98 µM) | >50 µg/mL |  | 
5 | COc1cc2c(cc1C)[n+]([O-])nc(NC1CCC1)[n+]2[O-] [Compound 15gd, 3-(cyclobutylamino)-6-methoxy-7-methylbenzo[e][1,2,4]triazine 1,4-dioxide] |  |  |  |  |  | 2.9 µg/mL (≈ 10.5 µM) | 2.5 µg/mL (≈ 9.05 µM) | 5.1 µg/mL (≈ 18.5 µM) | >50 µg/mL |  | 
6 | COc1cc2c(cc1C)[n+]([O-])nc(N[C@@H]1C[C@H]3CC[C@@H]1C3)[n+]2[O-] [Compound 15gm, 3-((1R,2R,4S)-bicyclo[2.2.1]heptan-2-ylamino)-6-methoxy-7-methylbenzo[e][1,2,4]triazine 1,4-dioxide] |  |  |  |  |  | 3.5 µg/mL (≈ 11.1 µM) | 5 µg/mL (≈ 15.8 µM) | 5.6 µg/mL (≈ 17.7 µM) | >50 µg/mL |  | 
7 | CCN(CC)c1n[n+]([O-])c2ccccc2[n+]1[O-] [Compound 17o, 3-(diethylamino)benzo[e][1,2,4]triazine 1,4-dioxide] |  |  |  |  |  | 1.3 µg/mL (≈ 5.55 µM) | 0.31 µg/mL (≈ 1.32 µM) | 0.46 µg/mL (≈ 1.96 µM) | 12 µg/mL |  | 
8 | [O-][n+]1nc(N2CCOCC2)[n+]([O-])c2ccccc21 [Compound 17p, 3-morpholinobenzo[e][1,2,4]triazine 1,4-dioxide] |  |  |  |  |  | 19 µg/mL (≈ 76.5 µM) | 2.5 to 5 µg/mL (≈ 10.1 to 20.1 µM) | 3.7 µg/mL (≈ 14.9 µM) | 5.4 µg/mL |  | 
9 | [O-][n+]1nc(N2CCCCC2)[n+]([O-])c2cc3c(cc21)CCC3 [Compound 20r, 3-(piperidin-1-yl)-7,8-dihydro-6H-indeno[5,6-e][1,2,4]triazine 1,4-dioxide] |  |  |  |  |  |  |  | 0.4 µg/mL (≈ 1.4 µM) | 21 µg/mL | 0.49 µg/mL (≈ 1.71 µM) | 0.62 µg/mL (≈ 2.17 µM)
10 | CN(C)c1n[n+]([O-])c2cc3c(cc2[n+]1[O-])CCC3 [Compound 20s, 3-(dimethylamino)-7,8-dihydro-6H-indeno[5,6-e][1,2,4]triazine 1,4-dioxide] |  |  |  |  |  |  |  | 0.3 µg/mL (≈ 1.22 µM) | 24 µg/mL | 1.5 µg/mL (≈ 6.09 µM) | 0.62 µg/mL (≈ 2.52 µM)
11 | CN(CCc1ccccc1)c1n[n+]([O-])c2cc3c(cc2[n+]1[O-])CCC3 [Compound 20u, 3-(methyl(phenethyl)amino)-7,8-dihydro-6H-indeno[5,6-e][1,2,4]triazine 1,4-dioxide] |  |  |  |  |  | 0.44 µg/mL (≈ 1.31 µM) |  | 0.24 µg/mL (≈ 0.713 µM) | 40 µg/mL |  | 0.31 µg/mL (≈ 0.922 µM)
12 | O=S1(=O)CCN(c2n[n+]([O-])c3cc4c(cc3[n+]2[O-])CCC4)CC1 [Compound 20v, 3-(thiomorpholinosulfone-1-yl)-7,8-dihydro-6H-indeno[5,6-e][1,2,4]triazine 1,4-dioxide] | 30 µg/mL |  | 5.0 µg/mL | 15 µg/mL | 17 µg/mL |  |  |  |  |  | 
13 | CC1CCCCN1c1n[n+]([O-])c2cc3c(cc2[n+]1[O-])CCC3 (stereo not drawn) [Compound 20w, 3-(2-methylpiperidin-1-yl)-7,8-dihydro-6H-indeno[5,6-e][1,2,4]triazine 1,4-dioxide] |  |  |  |  |  | 0.47 µg/mL (≈ 1.56 µM) |  | 0.66 µg/mL (≈ 2.2 µM) | >50 µg/mL |  | 1.2 µg/mL (≈ 4 µM)
14 | CS(=O)(=O)N1CCN(c2n[n+]([O-])c3cc4c(cc3[n+]2[O-])CCC4)CC1 [Compound 20x, 3-(4-(methylsulfonyl)piperazin-1-yl)-7,8-dihydro-6H-indeno[5,6-e][1,2,4]triazine 1,4-dioxide] |  |  | 5.0 µg/mL |  |  | 15 µg/mL (≈ 41 µM) | 2.5 to 5 µg/mL (≈ 6.84 to 13.7 µM) | 13 µg/mL (≈ 35.6 µM) | >50 µg/mL |  | 
15 | CO[C@H]1/C=C/O[C@@]2(C)Oc3c(C)c(O)c4c(O)c(c(/C=N/N5CCN(C)CC5)c(O)c4c3C2=O)NC(=O)/C(C)=C\C=C\[C@H](C)[C@H](O)[C@@H](C)[C@@H](O)[C@@H](C)[C@H](OC(C)=O)[C@@H]1C [RIF, Rifampin, reference compound] |  |  |  |  |  | 2 µg/mL (≈ 2.43 µM) | 0.003 µg/mL (≈ 0.00365 µM) | 0.041 µg/mL (≈ 0.0498 µM) | >50 µg/mL |  | 

Source: patent US9663478B2, “Benzotriazine oxides as drugs targeting Mycobacterium tuberculosis” (priority 2011, dated 2017)
